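96-well plates; 48 h exposure; 5 concentrations. Endpoints by linear interpolation between flanking doses. Not reached: highest tested concentration assigned. Abbreviation: GI50, concentration required for 50% inhibition of growth. The concentration for full growth arrest is given as TGI.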 Activity calls are given as the source filed them. Rule as the data show it: active = GI50 below about 0.43 µM; inactive = the rest.
Legend:
Experiment in all cases: growth of human tumour cells (NCI), 48 h
SK-MEL-2 melanoma = test system: SK-MEL-2 melanoma
UO-31 renal = test system: UO-31 renal
SF-295 CNS = test system: SF-295 CNS
MDA-MB-435 = test system: MDA-MB-435
EKVX NSCLC = test system: EKVX NSCLC
OVCAR-4 ovarian = test system: OVCAR-4 ovarian
DU-145 prostate = test system: DU-145 prostate
U251 CNS = test system: U251 CNS
SK-OV-3 ovarian = test system: SK-OV-3 ovarian
HOP-62 NSCLC = test system: HOP-62 NSCLC
NCI/ADR-RES ovarian = test system: NCI/ADR-RES ovarian
786-0 renal = test system: 786-0 renal
RPMI-8226 leukemia = test system: RPMI-8226 leukemia
HCT-15 colon = test system: HCT-15 colon
MCF7 breast = test system: MCF7 breast
HL-60(TB) leukemia = test system: HL-60(TB) leukemia
HCC-2998 colon = test system: HCC-2998 colon
SF-268 CNS = test system: SF-268 CNS
MDA-MB-231 breast = test system: MDA-MB-231 breast
CCRF-CEM leukemia = test system: CCRF-CEM leukemia
ACHN renal = test system: ACHN renal
BT-549 breast = test system: BT-549 breast
OVCAR-3 ovarian = test system: OVCAR-3 ovarian
HS 578T breast = test system: HS 578T breast
HT29 colon = test system: HT29 colon
RXF 393 renal = test system: RXF 393 renal
LOX IMVI melanoma = test system: LOX IMVI melanoma
PC-3 prostate = test system: PC-3 prostate
MALME-3M melanoma = test system: MALME-3M melanoma
T-47D breast = test system: T-47D breast
UACC-62 melanoma = test system: UACC-62 melanoma
SNB-19 CNS = test system: SNB-19 CNS
SW-620 colon = test system: SW-620 colon
SN12C renal = test system: SN12C renal
KM12 colon = test system: KM12 colon
IGROV1 ovarian = test system: IGROV1 ovarian
OVCAR-5 ovarian = test system: OVCAR-5 ovarian
UACC-257 melanoma = test system: UACC-257 melanoma
SK-MEL-5 melanoma = test system: SK-MEL-5 melanoma
SF-539 CNS = test system: SF-539 CNS
NCI-H522 lung = test system: NCI-H522 lung
SK-MEL-28 melanoma = test system: SK-MEL-28 melanoma
NCI-H23 lung = test system: NCI-H23 lung
A498 renal = test system: A498 renal
HCT-116 colon = test system: HCT-116 colon
HOP-92 NSCLC = test system: HOP-92 NSCLC
SR leukemia = test system: SR leukemia
A549 NSCLC = test system: A549 NSCLC
K-562 leukemia = test system: K-562 leukemia
SNB-75 CNS = test system: SNB-75 CNS
OVCAR-8 ovarian = test system: OVCAR-8 ovarian
COLO 205 colon = test system: COLO 205 colon
NCI-H460 lung = test system: NCI-H460 lung
M14 melanoma = test system: M14 melanoma
NCI-H226 lung = test system: NCI-H226 lung
MOLT-4 leukemia = test system: MOLT-4 leukemia
TK-10 renal = test system: TK-10 renal
CAKI-1 renal = test system: CAKI-1 renal

COC(=O)CCC(=O)C(=O)OC
GI50 (SK-MEL-2 melanoma): 19700 µM | TGI (SK-MEL-2 melanoma): 41400 µM | GI50 (UO-31 renal): 15000 µM | TGI (UO-31 renal): 85700 µM | GI50 (SF-295 CNS): 42000 µM | GI50 (MDA-MB-435): 62100 µM | GI50 (EKVX NSCLC): 20600 µM | GI50 (OVCAR-4 ovarian): 65000 µM | GI50 (DU-145 prostate): 31700 µM | GI50 (U251 CNS): 33400 µM | GI50 (SK-OV-3 ovarian): 11700 µM | TGI (SK-OV-3 ovarian): 62000 µM | GI50 (HOP-62 NSCLC): 23700 µM | GI50 (NCI/ADR-RES ovarian): 72600 µM | GI50 (786-0 renal): 33000 µM | GI50 (RPMI-8226 leukemia): 17200 µM | TGI (RPMI-8226 leukemia): 51200 µM | GI50 (HCT-15 colon): 31500 µM | outcome (MCF7 breast): inactive | GI50 (HL-60(TB) leukemia): 23600 µM | TGI (HL-60(TB) leukemia): 61600 µM | GI50 (HCC-2998 colon): 25300 µM | TGI (HCC-2998 colon): 73000 µM | GI50 (SF-268 CNS): 26400 µM | GI50 (MDA-MB-231 breast): 39500 µM | GI50 (CCRF-CEM leukemia): 17800 µM | TGI (CCRF-CEM leukemia): 85500 µM | GI50 (ACHN renal): 16300 µM | GI50 (BT-549 breast): 26300 µM | TGI (BT-549 breast): 96200 µM | GI50 (OVCAR-3 ovarian): 28600 µM | GI50 (HS 578T breast): 26600 µM | TGI (HS 578T breast): 97100 µM | GI50 (HT29 colon): 24200 µM | TGI (HT29 colon): 85900 µM | GI50 (RXF 393 renal): 30300 µM | TGI (RXF 393 renal): 95100 µM | GI50 (LOX IMVI melanoma): 13300 µM | GI50 (PC-3 prostate): 27800 µM | TGI (PC-3 prostate): 84500 µM | GI50 (MALME-3M melanoma): 37900 µM | outcome (T-47D breast): inactive | GI50 (UACC-62 melanoma): 13600 µM | TGI (UACC-62 melanoma): 51100 µM | GI50 (SNB-19 CNS): 34200 µM | GI50 (SW-620 colon): 53600 µM | GI50 (SN12C renal): 21500 µM | TGI (SN12C renal): 62100 µM | GI50 (KM12 colon): 27900 µM | GI50 (IGROV1 ovarian): 19000 µM | TGI (IGROV1 ovarian): 76800 µM | GI50 (OVCAR-5 ovarian): 26100 µM | GI50 (UACC-257 melanoma): 30800 µM | GI50 (SK-MEL-5 melanoma): 94300 µM | GI50 (SF-539 CNS): 24500 µM | GI50 (NCI-H522 lung): 13400 µM | TGI (NCI-H522 lung): 30500 µM | GI50 (SK-MEL-28 melanoma): 17600 µM | TGI (SK-MEL-28 melanoma): 60400 µM | GI50 (NCI-H23 lung): 27400 µM | TGI (NCI-H23 lung): 95700 µM | GI50 (A498 renal): 18500 µM | TGI (A498 renal): 39700 µM | GI50 (HCT-116 colon): 30600 µM | GI50 (HOP-92 NSCLC): 19300 µM | TGI (HOP-92 NSCLC): 82200 µM | GI50 (SR leukemia): 4360 µM | TGI (SR leukemia): 41100 µM | GI50 (A549 NSCLC): 52900 µM | GI50 (K-562 leukemia): 33500 µM | GI50 (SNB-75 CNS): 14800 µM | GI50 (OVCAR-8 ovarian): 63200 µM | outcome (COLO 205 colon): inactive | GI50 (NCI-H460 lung): 34100 µM | GI50 (M14 melanoma): 32300 µM | GI50 (NCI-H226 lung): 17300 µM | TGI (NCI-H226 lung): 65100 µM | GI50 (MOLT-4 leukemia): 34800 µM

COc1cc(NS(C)(=O)=O)ccc1Nc1c2ccc([N+](=O)[O-])cc2nc2c(C)cccc12
GI50 (SK-MEL-2 melanoma): 4.07 µM | TGI (SK-MEL-2 melanoma): 16.1 µM | GI50 (UO-31 renal): 1.22 µM | TGI (UO-31 renal): 11.4 µM | GI50 (TK-10 renal): 2.07 µM | TGI (TK-10 renal): 9.35 µM | GI50 (SF-295 CNS): 0.171 µM | TGI (SF-295 CNS): 11.1 µM | GI50 (MDA-MB-435): 1.67 µM | TGI (MDA-MB-435): 15 µM | GI50 (OVCAR-4 ovarian): 3.32 µM | TGI (OVCAR-4 ovarian): 19.1 µM | GI50 (DU-145 prostate): 0.133 µM | TGI (DU-145 prostate): 10.7 µM | GI50 (U251 CNS): 0.214 µM | TGI (U251 CNS): 11.2 µM | GI50 (SK-OV-3 ovarian): 0.891 µM | TGI (SK-OV-3 ovarian): 11.5 µM | GI50 (HOP-62 NSCLC): 0.107 µM | TGI (HOP-62 NSCLC): 6.37 µM | GI50 (NCI/ADR-RES ovarian): 6.95 µM | TGI (NCI/ADR-RES ovarian): 35.1 µM | GI50 (786-0 renal): 0.362 µM | TGI (786-0 renal): 6.04 µM | GI50 (RPMI-8226 leukemia): 0.18 µM | TGI (RPMI-8226 leukemia): 1.99 µM | GI50 (HCT-15 colon): 1.38 µM | TGI (HCT-15 colon): 4.32 µM | GI50 (CAKI-1 renal): 1.13 µM | TGI (CAKI-1 renal): 6.94 µM | GI50 (MCF7 breast): 0.0133 µM | TGI (MCF7 breast): 12.2 µM | GI50 (HL-60(TB) leukemia): 0.302 µM | TGI (HL-60(TB) leukemia): 3.57 µM | GI50 (HCC-2998 colon): 2.07 µM | TGI (HCC-2998 colon): 7.28 µM | GI50 (SF-268 CNS): 0.256 µM | TGI (SF-268 CNS): 13.1 µM | GI50 (MDA-MB-231 breast): 3.82 µM | TGI (MDA-MB-231 breast): 16.4 µM | GI50 (CCRF-CEM leukemia): 0.158 µM | TGI (CCRF-CEM leukemia): 3.4 µM | GI50 (ACHN renal): 0.371 µM | TGI (ACHN renal): 4.29 µM | GI50 (BT-549 breast): 1.45 µM | TGI (BT-549 breast): 7.45 µM | GI50 (OVCAR-3 ovarian): 1.17 µM | TGI (OVCAR-3 ovarian): 9.16 µM | GI50 (HS 578T breast): 1.96 µM | TGI (HS 578T breast): 22.3 µM | GI50 (HT29 colon): 1.41 µM | TGI (HT29 colon): 7.1 µM | GI50 (RXF 393 renal): 1.65 µM | TGI (RXF 393 renal): 6.35 µM | GI50 (LOX IMVI melanoma): 0.15 µM | TGI (LOX IMVI melanoma): 2.38 µM | GI50 (PC-3 prostate): 1.1 µM | TGI (PC-3 prostate): 9.1 µM | GI50 (MALME-3M melanoma): 0.717 µM | TGI (MALME-3M melanoma): 7.07 µM | GI50 (T-47D breast): 0.117 µM | TGI (T-47D breast): 7.68 µM | GI50 (UACC-62 melanoma): 0.377 µM | TGI (UACC-62 melanoma): 11.1 µM | GI50 (SNB-19 CNS): 0.213 µM | TGI (SNB-19 CNS): 14.1 µM | GI50 (SW-620 colon): 0.349 µM | TGI (SW-620 colon): 12.2 µM | GI50 (SN12C renal): 0.175 µM | TGI (SN12C renal): 9.26 µM | GI50 (KM12 colon): 0.814 µM | TGI (KM12 colon): 8.15 µM | GI50 (IGROV1 ovarian): 1.45 µM | TGI (IGROV1 ovarian): 9.36 µM | GI50 (OVCAR-5 ovarian): 2.87 µM | TGI (OVCAR-5 ovarian): 14.4 µM | GI50 (UACC-257 melanoma): 1.29 µM | TGI (UACC-257 melanoma): 14.7 µM | GI50 (SK-MEL-5 melanoma): 0.194 µM | TGI (SK-MEL-5 melanoma): 1.81 µM | GI50 (SF-539 CNS): 0.241 µM | TGI (SF-539 CNS): 1.97 µM | GI50 (NCI-H522 lung): 1.07 µM | TGI (NCI-H522 lung): 2.9 µM | GI50 (SK-MEL-28 melanoma): 2.73 µM | TGI (SK-MEL-28 melanoma): 17.4 µM | GI50 (NCI-H23 lung): 0.567 µM | TGI (NCI-H23 lung): 9.26 µM | GI50 (A498 renal): 0.226 µM | TGI (A498 renal): 2.92 µM | GI50 (HCT-116 colon): 0.361 µM | TGI (HCT-116 colon): 10.7 µM | GI50 (HOP-92 NSCLC): 0.111 µM | TGI (HOP-92 NSCLC): 1.68 µM | GI50 (SR leukemia): < 0.012 µM | TGI (SR leukemia): 5.82 µM | GI50 (A549 NSCLC): 0.0345 µM | TGI (A549 NSCLC): 2.34 µM | GI50 (K-562 leukemia): 0.801 µM | TGI (K-562 leukemia): 9.89 µM | GI50 (SNB-75 CNS): 0.311 µM | TGI (SNB-75 CNS): 7.48 µM | GI50 (OVCAR-8 ovarian): 1.08 µM | TGI (OVCAR-8 ovarian): 14 µM | GI50 (COLO 205 colon): 2.05 µM | TGI (COLO 205 colon): 13.5 µM | TGI (NCI-H460 lung): 1.59 µM | GI50 (M14 melanoma): 0.228 µM | TGI (M14 melanoma): 11.2 µM | GI50 (NCI-H226 lung): 0.338 µM | TGI (NCI-H226 lung): 4.16 µM | GI50 (MOLT-4 leukemia): 0.0409 µM | TGI (MOLT-4 leukemia): 4.37 µM

— PubChem BioAssay (NCI)
